One data set deals with oral bacteria. Nature of the data set: Alamar Blue evaluation of antibacterial efficacy in the presence of the anionic surfactant SLS. Type of data set: cell-based, human saliva. Conditions: 10 mg active + 20 mg of 30 weight % SLS solution + 5 ml oral bacteria solution, 37° C., 1 hour after addition of Alamar Blue dye, color change from blue to red indicates live bacteria. As to the method: In particular, the antibacterial efficacy of a CPC—ZnCl2 complex was compared to ZnCl2 and CPC individually, in the presence of SLS, as follows: human saliva was collected and diluted three times with deionized water, centrifuged, and decanted to yield a translucent solution of oral bacteria. […] A negative control was also prepared adding 20 mg (+/−0.9 mg) of the 30 weight % SLS aqueous solution and 5 ml of the prepared oral bacteria solution to deionized water instead of the antibacterial ingredient. The samples were then placed in a 37° C. oven and shaken at 100 RPM for 30 minutes. 200 μL of Alamar Blue dye was then added to each sample and placed back in the 37° C. oven and shaken at 100 RPM. The samples were then monitored every 30 minutes, with the results 1 hour after addition of the dye recorded in Table 1. Under an Alamar Blue assay, a color change from blue to red indicates the presence of live bacteria.
(The colour change of resazurin is a common sign of viable cells or microbes.)

Like-named read-outs stand apart in the source and are kept apart here.

Consider `CCCCCCCCCCCCCCCC[n+]1ccccc1` [CPC, cetylpyridinium chloride], for which, in the data set on oral bacteria, the “Color of Solution” value was “pink and Pink”.

With `CCCCCCCCCCCCCCCC[n+]1ccccc1.CCCCCCCCCCCCCCCC[n+]1ccccc1.[Cl][Zn-2]([Cl])([Cl])[Cl]` [CPC-ZnCl2 complex], the solubility in water result reads like this: (0.1 weight % solution, room temperature (23-24° C.)) “soluble”; (0.5 weight % solution, room temperature (23-24° C.)) “soluble”; (1.0 weight % solution, physiological temperature (36-37° C.)) “soluble”; (1.0 weight % solution, room temperature (23-24° C.), after 24 hours of aging) “undissolved”; (10 weight % solution, physiological temperature (36-37° C.)) “not fully soluble”; (10.0 weight % solution, room temperature (23-24° C.), after 24 hours of aging) “undissolved”. Further, the “reduction in solubility compared to the CPC and ZnCl2 reactants separately” value (water) is on record as at least 25 fold. Moreover, the “Color of Solution” value in the data set with oral bacteria is “Blue”; in the data set on oral bacteria (listed as CPC—ZnCl2 complex), “blue”.

With `[Cl-].[Cl-].[Zn+2]` [ZnCl2, zinc chloride], the “Color of Solution” value with oral bacteria was “Purple”.
